Measurements reported in patent US9643967B2, “Pyrrolo[3,2-c]pyridine derivatives as TLR inhibitors” (TAKEDA PHARMACEUTICAL COMPANY LIMITED, priority 2013, dated 2017).
Read-outs that look alike come from different tables or passages of the source.

Biological target: T1, mTLR9 (Mus musculus, UniProt Q9EQU3)
T1 construct: Splenocytes isolated from male C57/BL6 mice; from tissue; host or cells: splenocytes from the spleen of male C57BL/6 mice
T1 sequence (Q9EQU3 26-1032): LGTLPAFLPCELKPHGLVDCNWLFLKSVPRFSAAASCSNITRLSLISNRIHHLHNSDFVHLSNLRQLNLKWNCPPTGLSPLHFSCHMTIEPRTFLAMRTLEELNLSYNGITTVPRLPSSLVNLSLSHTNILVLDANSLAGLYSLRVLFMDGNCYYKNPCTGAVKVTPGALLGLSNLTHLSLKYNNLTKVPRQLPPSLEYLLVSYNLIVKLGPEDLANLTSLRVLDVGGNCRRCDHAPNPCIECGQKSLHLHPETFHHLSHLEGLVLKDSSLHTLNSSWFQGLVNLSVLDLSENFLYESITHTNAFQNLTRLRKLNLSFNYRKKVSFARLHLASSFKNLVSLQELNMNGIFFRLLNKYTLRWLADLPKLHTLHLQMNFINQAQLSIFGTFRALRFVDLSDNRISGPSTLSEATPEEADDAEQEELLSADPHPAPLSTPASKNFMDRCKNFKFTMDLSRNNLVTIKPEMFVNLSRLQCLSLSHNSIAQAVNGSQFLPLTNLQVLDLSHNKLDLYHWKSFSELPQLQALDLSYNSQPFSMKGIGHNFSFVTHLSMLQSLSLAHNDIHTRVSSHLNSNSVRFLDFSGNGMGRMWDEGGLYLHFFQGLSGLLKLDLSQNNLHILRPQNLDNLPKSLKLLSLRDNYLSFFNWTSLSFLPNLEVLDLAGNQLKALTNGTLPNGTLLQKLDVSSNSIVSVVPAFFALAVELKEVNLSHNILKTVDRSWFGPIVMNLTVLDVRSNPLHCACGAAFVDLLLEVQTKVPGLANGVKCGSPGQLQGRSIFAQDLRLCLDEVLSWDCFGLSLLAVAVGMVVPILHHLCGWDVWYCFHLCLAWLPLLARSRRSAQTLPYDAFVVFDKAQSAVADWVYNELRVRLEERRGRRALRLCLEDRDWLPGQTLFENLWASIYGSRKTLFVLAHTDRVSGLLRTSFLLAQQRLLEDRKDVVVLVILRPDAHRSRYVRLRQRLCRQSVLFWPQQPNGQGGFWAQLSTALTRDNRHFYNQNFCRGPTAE
Assay: mTLR9 antagonism (IL-6 and TNF-α release assay) in mouse splenocytes, CpG ODN-2006 stimulated
Format: cell-based
From the text: mTLR9 and mTLR7 Antagonism (Cytokine Release Assay) in Mouse Splenocytes
TLR7 ligand R0006 (IDT, 5′-rU*rU*rG*rU*rU*rG*rU*rU*rG*rU*rU*rG*rU*rU*rG*rU*rU*rG*rU*rU-3′ (SEQ ID NO:1)), Liposomal transfection reagent—DOTAP (Roche, Cat. No. 11202375001), TLR9 ligand CpG ODN2006 (Sequence: T*C*G*T*C*G*T*T*T*T*G*T*C*G*T*T*T*T*G*T*C*G*T*T; *=phosphorothioate (SEQ ID NO:2)) DMSO (Sigma, D2650), RPMI Powder (Sigma, R6504), Fetal Bovine Serum (Gibco, 10270), Dulbecco's Phosphate Buffered Saline (Sigma, D1408), 96 well plate (Flat bottom, Costar 3599), ELISA kit for IL-6 (EBioscience, 88-7064-77 and TNFa (EBioscience, 88-7346-88), MACS Buffer (AutoMACS Rinsing Solution (Miltenyl Biotec, 130-091-222)+0.05% BSA), RBC lysis buffer (0.85% NH4Cl), 40 μm cell strainer (BD Falcon, 352340) Method: A. Isolation of Mouse Splenocytes
Mouse spleen was isolated from C57BL6 mouse and stored in 1× chilled PBS buffer until further processed. Spleen was transferred to a sterile petriplate and chopped in to 5-6 pieces in presence of MACS buffer (100 μl) with the help of fresh surgical blade and crushed with flat plunger of a sterile syringe. A uniform suspension was prepared by passing cells through a 40 μm cell strainer. Cells were centrifuged at 450×g for 5 minutes at 4° C., supernatant was discarded and pellet dislodged gently, resuspended in 2 ml of pre-warmed (37° C.) RBC lysis buffer at room temperature with continuous gentle mixing with 1 ml pipette. Lysis buffer was neutralized with 12 ml of chilled MACS buffer and cells were passed through 40 μm cell strainer. Cell suspension was collected in 15 ml MACS buffer and centrifuged at 450×g for 5 minutes at 4° C. Pellet was resuspended in 15 ml MACS buffer and centrifuged at 400×g for 5 minutes. Cells were resuspended in 10 ml of RPMI complete medium and viability was estimated by Trypan blue method.
mTLR9 Antagonism (IL-6 and TNF-α Release Assay):
500 μM stock of CpG ODN-2006 was prepared in sterile, endotoxin-free water. Dilutions of 10× concentrations of NCEs were prepared in incomplete RPMI media, maintaining a final DMSO concentration of 0.3%. NCEs were added in a concentration range of 30 μM to 1 nM in respective wells of assay plate, assay medium containing 0.3% DMSO were added to control wells. 0.2 million splenocytes were added to all the wells and incubated at 37° C. in 5% CO2 incubator for 30 minutes. 1 μg/ml of respective agonist was added to all the wells except those were assigned as negative controls and mixed thoroughly. Incomplete RPMI was added to negative control wells and incubated overnight at 37° C./5% CO2. The plate was centrifuged at 450×g for 5 minutes at room temperature and the supernatant was collected. ELISA was performed as per manufacturer's protocol. S/B Ratio, % Activity and % Inhibition was calculated using MS Excel. IC50 and inhibition curve was generated using Graph Pad Prism.

[1] = 1 μM, IL-6 release, mouse splenocytes, read-out: mTLR9 inhibitory activity (% at 1 μM), IL-6
[2] = 1 μM, TNF-α release, mouse splenocytes, read-out: mTLR9 inhibitory activity (% at 1 μM), TNF-α

Row | SMILES | inhibition at 1 µM [1] | inhibition at 1 µM [2] | inhibition at 1 µM (read-out: mTLR9 inhibitory activity (% at 1 μM), IL-6) | inhibition at 1 µM (read-out: mTLR9 inhibitory activity (% at 1 μM), TNF-α)
1 | CC(C)N1CCN(c2cccc(-c3nccc4[nH]c(CN5CCOCC5)cc34)c2)CC1 [Example A57, 4-[[4-[3-(4-isopropylpiperazin-1-yl)phenyl]-1H-pyrrolo[3,2-c]pyridin-2-yl]methyl]morpholine] | 100% | 34% |  | 
2 | Cc1cc2c(cc(CCCN3CCOCC3)n2C)c(-c2ccc(N3CCN(C(C)C)CC3)cc2)n1 [Example C6, 4-[3-[4-[4-(4-isopropylpiperazin-1-yl)phenyl]-1,6-dimethyl-pyrrolo[3,2-c]pyridin-2-yl]propyl]morpholine] | 100% | 100% |  | 
3 | Cc1cc2c(cc(CCN3CCOCC3)n2C)c(C2CCC(N3CCN(C(C)C)CC3)CC2)n1 (stereo not shown) [Example B27, 4-[2-[4-[4-(4-isopropylpiperazin-1-yl)cyclohexyl]-1,6-dimethyl-pyrrolo[3,2-c]pyridin-2-yl]ethyl]morpholine] | 100% | 72% |  | 
4 | CC(C)N1CCN(c2ccc(-c3nccc4[nH]c(C(=O)N5CCOCC5)cc34)cc2)CC1 [Example A82, [4-[4-(4-isopropylpiperazin-1-yl)phenyl]-1H-pyrrolo[3,2-c]pyridin-2-yl]-morpholino-methanone] |  |  | 100% | 52%
5 | CN1CCN(c2ccc(-c3nccc4[nH]c(CCN5CCOCC5)cc34)cc2)CC1 [Example B2, 4-[2-[4-[4-(4-methylpiperazin-1-yl)phenyl]-1H-pyrrolo[3,2-c]pyridin-2-yl]ethyl]morpholine] | 100% | 95% |  | 
6 | Cc1cc2c(cc(CN3CCOCC3)n2C)c(-c2ccc(N3CCN(C(C)C)CC3)cc2)n1 [Example A35, 4-[[4-[4-(4-isopropylpiperazin-1-yl]phenyl]-1,6-dimethyl-pyrrolo[3,2-c]pyridin-2-yl]methyl] morpholine] | 100% | 90% |  | 
7 | Cc1cc2c(cc(CCN3CCOCC3)n2C)c(-c2ccc(N3CCN(C(C)C)CC3)cc2F)n1 [Example B19, 4-[2-[4-[2-fluoro-4-(4-isopropylpiperazin-1-yl)phenyl]-1,6-dimethyl-pyrrolo[3,2-c]pyridin-2-yl]ethyl]morpholine] | 100% | 100% |  | 
8 | Cc1cc2c(cc(CCN3CCOCC3)n2C)c(-c2cccc(N3CCN(C(C)C)CC3)c2)n1 [Example B21, 4-[2-[4-[3-(4-isopropylpiperazin-1-yl)phenyl]-1,6-dimethyl-pyrrolo[3,2-c]pyridin-2-yl]ethyl]morpholine] | 100% | 100% |  | 
9 | c1cc2[nH]c(CN3CCOCC3)cc2c(-c2ccc(OC3CCNCC3)cc2)n1 [Example A49, 4-[[4-[4-(4-piperidyloxy)phenyl]-1H-pyrrolo[3,2-c]pyridin-2-yl]methyl]morpholine] | 65% | 15% |  | 
10 | CCN1CCN(c2ccc(-c3nc(C)cc4[nH]c(CN5CCOCC5)cc34)cc2)CC1 [Example A5, 4-[[4-[4-(4-ethylpiperazin-1-yl)phenyl]-6-methyl-1H-pyrrolo[3,2-c]pyridin-2-yl]methyl] morpholine] | 100% | 91% |  | 
11 | Cc1cc2[nH]c(Cn3cccn3)cc2c(-c2ccc(N3CCN(C(C)C)CC3)cc2)n1 [Example A28, 4-[4-(4-isopropylpiperazin-1-yl)phenyl]-6-methyl-2-(pyrazol-1-ylmethyl)-1H-pyrrolo[3,2-c]pyridine] | 100% | 100% |  | 
12 | CCN1CCN(c2ccc(-c3nc(C)c(C)c4[nH]c(CN5CCOCC5)cc34)cc2)CC1 [Example A38, 4-[[4-[4-(4-ethylpiperazin-1-yl)phenyl]-6,7-dimethyl-1H-pyrrolo[3,2-c]pyridin-2-yl]methyl] morpholine] | 100% | 100% |  | 
13 | CN1CCC(n2cc(-c3nccc4[nH]c(CN5CCOCC5)cc34)cn2)CC1 [Example A63, 4-[[4-[1-(1-methyl-4-piperidyl)pyrazol-4-yl]-1H-pyrrolo[3,2-c]pyridin-2-yl]methyl]morpholine] |  | 0% |  | 
14 | Cc1cc2[nH]c(CCCN3CCOCC3)cc2c(-c2ccc(N3CCN(C(C)C)CC3)cc2)n1 [Example C3, 4-[3-[4-[4-(4-isopropylpiperazin-1-yl)phenyl]-6-methyl-1H-pyrrolo[3,2-c]pyridin-2-yl]propyl]morpholine] | 100% | 100% |  | 
15 | Cc1nc(-c2ccc(N3CCN(C)CC3)cc2)c2cc(CCN3CCOCC3)[nH]c2c1C [Example B7, 4-[2-[6,7-dimethyl-4-[4-(4-methylpiperazin-1-yl)phenyl]-1H-pyrrolo[3,2-c]pyridin-2-yl]ethyl]morpholine] |  | 100% |  | 
16 | Cc1nc(-c2ccc(N3CCN(C(C)C)CC3)cc2)c2cc(CN3CCCC3)[nH]c2c1C [Example A40, 4-[4-(4-isopropylpiperazin-1-yl)phenyl]-6,7-dimethyl 2-(pyrrolidin-1-ylmethyl)-1H-pyrrolo[3,2-c)pyridine] |  | 100% |  | 
17 | CC(C)N1CCN(c2ccc(-c3nccc4[nH]c(CN5CCC[C@@H]5C(=O)O)cc34)cc2)CC1 [Example A74, (2R)-1-[[4-[4-(4-isopropylpiperazin-1-yl)phenyl]-1H-pyrrolo[3,2-c]pyridin-2-yl]methyl]pyrrolidine-2-carboxylic acid] |  | 95% |  | 
18 | Cc1nc(-c2ccc(N3CCN(C(C)C)CC3)cc2)c2cc(CN3CCCCC3)[nH]c2c1C [Example A39, 4-[4-(4-isopropylpiperazin-1-yl)phenyl]-6,7-dimethyl-2-(1-piperidylmethyl)-1H-pyrrolo[3,2-c]pyridine] |  | 100% |  | 
19 | CC(C)N1CCN(Cc2ccc(-c3nccc4[nH]c(CN5CCOCC5)cc34)cc2)CC1 [Example A55, 4-[[4-[4-[(4-isopropylpiperazin-1-yl)methyl]phenyl]-1H-pyrrolo[3,2-c]pyridin-2-yl]methyl]morpholine] | 96% | 59% |  | 
20 | CC(C)N1CCN(c2ccc(-c3nccc4[nH]c(CN5CCC(F)CC5)cc34)cc2)CC1 [Example A24, 2-[(4-fluoro-1-piperidyl)methyl]-4-[4-(4-isopropylpiperazin-yl)phenyl]-1H-pyrrolo[3,2-c] pyridine] |  | 100% |  | 
